Results as given in patent US6262075A, “Piperidone tachykinin antagonists” (Pfizer Inc, priority 1996, dated 2001).

These compounds were tested against T1, human NK2 receptor (Homo sapiens, UniProt P21452) (assay: affinity for the human NK2 receptor, competition with [^3 H] NKA for binding to membranes prepared from Chinese hamster ovary cells). Details: membranes from Chinese hamster ovary cells expressing the cloned human NK2 receptor, negative logarithm of the molar affinity.
T1 construct: expressed in transfected cells; host or cells: Chinese hamster ovary cells (membranes)
T1 sequence (P21452 1-398): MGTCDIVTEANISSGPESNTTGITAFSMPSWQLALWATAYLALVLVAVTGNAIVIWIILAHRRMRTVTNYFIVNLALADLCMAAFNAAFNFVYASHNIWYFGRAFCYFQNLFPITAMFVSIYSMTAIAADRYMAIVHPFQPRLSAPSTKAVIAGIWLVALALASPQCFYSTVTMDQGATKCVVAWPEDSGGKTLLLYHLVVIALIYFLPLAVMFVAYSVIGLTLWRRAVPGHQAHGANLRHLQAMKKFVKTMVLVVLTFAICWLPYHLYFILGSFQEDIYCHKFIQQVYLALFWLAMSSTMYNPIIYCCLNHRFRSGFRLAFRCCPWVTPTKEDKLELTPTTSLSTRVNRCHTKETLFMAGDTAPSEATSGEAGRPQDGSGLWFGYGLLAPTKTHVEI
Description: The affinity of the compounds of formula (I) and their salts for the human NK2 receptor can be tested in vitro by testing their ability to compete with [^3 H] or [^125 I]NKA (neurokinin A) for binding to membranes prepared from Chinese hamster ovary cells expressing the cloned human NK2 receptor. In this method, washed Chinese hamster ovary cell membranes are prepared as described for the previous method where IM9 cells are used instead. The membranes are incubated (90 min, 25° C.) with [^3 H] or [^125 I]NKA and with a range of concentrations of the test compound. Non-specific binding was determined in the presence of 10 μM NKA.
The affinity of a selection of the compounds of the preceding Examples for the human NK2 receptor was tested in vitro by testing their ability to compete with [^3 H] NKA for binding to membranes prepared from Chinese hamster ovary cells expressing the cloned human NK2 receptor using the method set out on page 26.
The "pKi" measurement is the negative logarithm of the molar affinity of the compound for the receptor as determined in radioligand binding assays using standard protocols.

First: O=C1CC[C@](CCN2CC(N3CCC(F)CC3)C2)(c2ccc(Cl)c(Cl)c2)CN1CC1CCC(F)(F)CC1 [Example 1]
Second: O=C1CCC(CCN2CC(N3CCC(F)CC3)C2)(c2ccc(Cl)c(Cl)c2)CN1CCC1CC1 (stereo not shown) [Example 4]
The Ki of the first is 4-fold lower: 0.631 nM for the first, 2.51 nM for the second.

Compared with `O=C1CCC(CCN2CC(N3CCC(F)CC3)C2)(c2ccc(Cl)c(Cl)c2)CN1C1CCCCC1` (stereo not shown) [Example 2], `O=C1CCC(CCN2CC(N3CCC(F)CC3)C2)(c2ccc(Cl)c(Cl)c2)CN1C1(C2CC2)CCCC1` (stereo not shown) [Example 3] is 2-fold higher in Ki: 0.0501 nM for the first, 0.1 nM for the second.
